Assay results reported in ChEMBL document CHEMBL3585298, “Combination of 4-anilinoquinazoline and rhodanine as novel epidermal growth factor receptor tyrosine kinase inhibitors” (Bioorg Med Chem, 2015).

Assays:
[1] = test system: A549; assay: Antiproliferative activity against human A549 cells assessed as cell growth by MTT assay; assay type: functional, cell-based
[2] = test system: HepG2; assay: Antiproliferative activity against human HepG2 cells assessed as cell growth by MTT assay; assay type: functional, cell-based
[3] = biological target: Epidermal growth factor receptor (Homo sapiens, UniProt P00533); assay: Inhibition of recombinant EGFR (unknown origin) assessed as inhibition of autophosphorylation after 1 hr by DELFIA/Time-resolved fluorometry
Chain of Epidermal growth factor receptor (P00533 whole entry): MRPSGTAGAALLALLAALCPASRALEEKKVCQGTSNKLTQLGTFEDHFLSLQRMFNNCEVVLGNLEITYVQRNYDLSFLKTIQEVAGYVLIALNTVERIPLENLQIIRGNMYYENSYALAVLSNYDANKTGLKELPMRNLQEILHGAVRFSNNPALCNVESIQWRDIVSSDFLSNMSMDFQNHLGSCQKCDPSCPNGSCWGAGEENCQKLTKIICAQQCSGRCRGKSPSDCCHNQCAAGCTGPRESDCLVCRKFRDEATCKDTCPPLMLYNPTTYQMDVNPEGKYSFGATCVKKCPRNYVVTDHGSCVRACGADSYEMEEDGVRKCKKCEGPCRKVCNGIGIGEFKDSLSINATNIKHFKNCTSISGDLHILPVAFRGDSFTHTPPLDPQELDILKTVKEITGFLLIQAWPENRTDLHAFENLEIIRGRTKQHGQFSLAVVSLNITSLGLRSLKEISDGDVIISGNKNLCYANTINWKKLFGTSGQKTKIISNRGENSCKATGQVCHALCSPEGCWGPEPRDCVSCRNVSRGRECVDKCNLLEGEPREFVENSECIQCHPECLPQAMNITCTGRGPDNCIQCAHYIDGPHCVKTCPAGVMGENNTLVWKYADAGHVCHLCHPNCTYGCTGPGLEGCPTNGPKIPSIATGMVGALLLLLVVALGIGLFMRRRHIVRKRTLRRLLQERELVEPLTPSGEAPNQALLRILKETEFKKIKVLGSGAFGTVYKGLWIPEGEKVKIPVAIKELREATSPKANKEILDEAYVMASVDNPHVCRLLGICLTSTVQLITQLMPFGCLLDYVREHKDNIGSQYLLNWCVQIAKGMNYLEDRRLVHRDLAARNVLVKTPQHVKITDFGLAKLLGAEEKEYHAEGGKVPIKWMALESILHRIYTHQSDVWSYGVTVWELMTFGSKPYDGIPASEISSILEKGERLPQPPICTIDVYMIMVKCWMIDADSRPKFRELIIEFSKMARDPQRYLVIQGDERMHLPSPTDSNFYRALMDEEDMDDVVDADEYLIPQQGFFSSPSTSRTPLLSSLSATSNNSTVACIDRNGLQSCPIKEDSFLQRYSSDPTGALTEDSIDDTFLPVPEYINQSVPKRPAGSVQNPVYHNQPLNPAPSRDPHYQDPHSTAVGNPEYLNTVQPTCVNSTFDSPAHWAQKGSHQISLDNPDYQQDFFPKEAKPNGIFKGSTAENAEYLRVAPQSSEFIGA

SMILES | IC50 [1] | IC50 [2] | IC50 [3]
O=C1N=C(N2CCC[C@H]2C(=O)Nc2ccc3ncnc(Nc4cccc(Cl)c4)c3c2)S/C1=C/c1ccccc1F | 34.5 µM | 18.2 µM | –
O=C1N=C(N2CCC[C@H]2C(=O)Nc2ccc3ncnc(Nc4cccc(Cl)c4)c3c2)S/C1=C/c1cccs1 | 6.1 µM | 4.12 µM | 8.1 µM
O=C1N=C(N2CCC[C@H]2C(=O)Nc2ccc3ncnc(Nc4cccc(Cl)c4)c3c2)S/C1=C/c1ccc(Br)s1 | > 50 µM | > 50 µM | 31.4 µM
Cc1cccc(/C=C2/SC(N3CCC[C@H]3C(=O)Nc3ccc4ncnc(Nc5cccc(Cl)c5)c4c3)=NC2=O)n1 | 8.5 µM | 4.5 µM | 6.5 µM
O=C1N=C(N2CCC[C@H]2C(=O)Nc2ccc3ncnc(Nc4cccc(Cl)c4)c3c2)S/C1=C/c1cccc(Br)n1 | 3.1 µM | 2.7 µM | 3.1 µM
O=C1N=C(N2CCC[C@H]2C(=O)Nc2ccc3ncnc(Nc4cccc(Cl)c4)c3c2)S/C1=C/c1cccnc1Cl | 10.8 µM | 6.4 µM | 7.4 µM
O=C1N=C(N2CCC[C@H]2C(=O)Nc2ccc3ncnc(Nc4cccc(Cl)c4)c3c2)S/C1=C/c1cccnc1 | 10.4 µM | 8.5 µM | 9.8 µM
O=C1N=C(N2CCC[C@H]2C(=O)Nc2ccc3ncnc(Nc4cccc(Cl)c4)c3c2)S/C1=C/c1ccc2ccccc2n1 | > 50 µM | 22.9 µM | –
O=C1N=C(N2CCC[C@H]2C(=O)Nc2ccc3ncnc(Nc4cccc(Cl)c4)c3c2)S/C1=C/c1ccccc1Cl | > 50 µM | 28.1 µM | –
O=C1N=C(N2CCC[C@H]2C(=O)Nc2ccc3ncnc(Nc4cccc(Cl)c4)c3c2)S/C1=C/c1cccc(Cl)c1 | > 50 µM | 27.6 µM | –
O=C1N=C(N2CCC[C@H]2C(=O)Nc2ccc3ncnc(Nc4cccc(Cl)c4)c3c2)S/C1=C/c1ccccc1Br | > 50 µM | 24.3 µM | –
O=C1N=C(N2CCC[C@H]2C(=O)Nc2ccc3ncnc(Nc4cccc(Cl)c4)c3c2)S/C1=C/c1cccc(Br)c1 | > 50 µM | 21.3 µM | –
O=C1N=C(N2CCC[C@H]2C(=O)Nc2ccc3ncnc(Nc4cccc(Cl)c4)c3c2)S/C1=C/c1ccc(Cl)cc1 | 18.7 µM | 10.5 µM | 7.6 µM
COc1ccccc1/C=C1/SC(N2CCC[C@H]2C(=O)Nc2ccc3ncnc(Nc4cccc(Cl)c4)c3c2)=NC1=O | > 50 µM | 22.1 µM | –
O=C1N=C(N2CCC[C@H]2C(=O)Nc2ccc3ncnc(Nc4cccc(Cl)c4)c3c2)S/C1=C/c1ccccc1[N+](=O)[O-] | > 50 µM | 32.5 µM | –
COc1ccc(/C=C2/SC(N3CCC[C@H]3C(=O)Nc3ccc4ncnc(Nc5cccc(Cl)c5)c4c3)=NC2=O)cc1 | 31.7 µM | 19 µM | –
O=C1N=C(N2CCC[C@H]2C(=O)Nc2ccc3ncnc(Nc4cccc(Cl)c4)c3c2)S/C1=C/c1ccc(-c2ccccc2)cc1 | 24.2 µM | 15.4 µM | 13.2 µM
